Entries after “also recorded” stand apart in the source; their conditions may differ.
Legend:
[1] = test system: Leigh (GM03672) fibroblasts; experiment: Erastin cytoprotection assay, Leigh fibroblasts; format: cell-based, human; conditions: 2 μM erastin, 250 μM FAC, 50 μM AA, 10-1000 nM compound, 24 h
Description: (§1) Briefly, Healthy (GM08402) or Leigh (GM03672) fibroblasts were resuspended in assay medium, seeded at 10,000 cells per well in a clear, tissue cultured-treated, 96-well plate, and incubated at 37° C. overnight. Following the incubation, supernatant was manually aspirated from wells, taking care not to disrupt cells. Fibroblasts were co-treated in a final volume of 100 μL with 2 μM erastin (Millipore Corp., Cat #), 250 μM ferric ammonium citrate (FAC), 50 μM ascorbic acid (AA), and a titration of one of each of Compounds 1 to 4 or Vatiquinone ranging from 10 to 1000 nM. Following another 24-hour incubation at 37° C., cell viability was measured using the CellTiter-Glo Luminescent Cell Viability Kit (ProMega) per Manufacturer's instructions. Luminescence units were quantified by GEN5 software on a BioTek SYNERGY neo2 plate reader (LUM filter).
(§2) Briefly, erastin, like RSL3, is known to induce ferroptosis. […] Erastin was incubated with cell fibroblasts for 24 hours to induce ferroptosis. Cells were co-treated with each of Compounds 1 to 4, or Vatiquinone as the test articles. Test articles were administered at a range of concentrations to derive a curve. Cell viability was determined using a commercially available kit that measures ATP production. […] An increase in cell viability as determined by the assay is considered to be protective against ferroptosis.

[2] = test system: rotenone-inhibited Complex I; experiment: Complex I-bypass assay ((CI)-bypass assay), high-resolution respirometry O2 consumption; format: cell-based, human; conditions: Leigh (GM03672) fibroblasts, 0.5 μM rotenone; for Complex I by-pass activity (restoration of oxygen consumption rate): titrations 125 nM to 8 μM
Description: All high-resolution respirometry experiments were conducted using the Oroboros O2k-Fluorespirometer (Oroboros, Innsbruck, Austria). The Oroboros O2k-Fluorespirometer was calibrated daily using the air calibration protocol on DatLab 7.4 (Oroboros, Innsbruck, Austria). Prior to each experiment requiring the fluorescence module, the AmpR calibration protocol from DatLab 7.4 was used to calibrate the fluorescence signal. Initial data analysis, including setting of marks, was performed using DatLab 7.4.
Complex I-bypass activity was assessed using HRR to measure O2 consumption. Briefly, Leigh (GM03672) fibroblasts were harvested with trypsin, pelleted at 300×g centrifugation, and resuspended in prewarmed, complete MEM. Cells were added to each chamber via buffer replacement at a concentration of 1-2 million per mL. The chambers were closed to initiate measurement of O2 consumption. The slope negative signal, which is a derivative of O2 consumption, was allowed to stabilize over the course of several minutes. Using a Hamilton syringe to allow for continuous measurement of O2 consumption, glutamate (10 mM final concentration) and malate (0.1 mM final concentration) were added to the closed chamber through the central capillary of the stopper. The slope negative signal was stabilized for several minutes, and rotenone was added at a final concentration of 0.5 μM. One of Compounds 1 to 4 or Vatiquinone was added at increasing concentrations, allowing for several minutes of stabilization of the slope negative signal between titrations. Marks were set at signal plateaus in between titrations. Values were exported and analyzed using GraphPad Prism 9. […] Responsiveness of cells was confirmed with idebenone.
Statistical analysis was performed using GraphPad Prism 9. Complex I-bypass data were fit using nonlinear sigmoidal 4P fit. RET Assay data were analyzed by 2-way ANOVA using a p-value of 0.05.
The Complex 1-bypass assay ((CI)-bypass Assay) evaluates the capacity of compounds to donate electrons into the electron transport chain (ETC) when Complex I is impaired or otherwise deficient. Normally, electrons feed into the ETC through Complex I. In instances where Complex I is impaired, electrons must enter the ETC downstream of Complex I for oxidative phosphorylation (OXPHOS) to occur. Complex I is composed of 46 subunits, encoded by mitochondrial and nuclear genes. Due to its large size, Complex I mutations are a common cause of ETC dysfunction in mitochondrial diseases. Indeed, mutations in the genes that encode subunits for Complex I are important causes of Leigh and Leigh-like syndrome.
Using this assay, the ability of Compounds 1 to 4 and Vatiquinone to bypass rotenone-inhibited Complex I was determined. Rotenone is a widely used Complex I inhibitor and blocks the transfer of electrons from the iron-sulfur complexes on Complex I to ubiquinone. Thus, when rotenone is introduced to cells underdoing routine respiration, a decrease in oxygen consumption is observed, which is indicative of disrupted OXPHOS. The ability of Compounds 1 to 4 and Vatiquinone to “bypass” Complex I and restore OXPHOS is measured by an increase in oxygen consumption rate following addition of the compound to the chamber.
In executing this assay, in each instance, fibroblasts are added to each chamber of the Oroboros Oxygraph-2K (the “O2k”). The O2k generates two traces: 1) total oxygen consumption over time, 2) the rate of oxygen consumption over time (slope negative). Baseline respiration is established for several minutes by allowing the slope negative to stabilize. Rotenone is introduced to each chamber at a final concentration of 0.5 μM. The addition of rotenone is expected to cause a marked reduction of OXPHOS as measured by a decreased rate of oxygen consumption. Then the test article (i.e., in this case one of Compounds 1 to 4 or Vatiquinone) is added to the chamber. […]

[3] = test system: Leigh syndrome (GM03672) fibroblasts; experiment: RSL3 cytoprotection assay, Leigh fibroblasts; format: cell-based, human; conditions: for relative anti-ferroptosis properties (comparison between test articles): 375 nM RSL3, 10-1000 nM compound, 4 h
Description: (§3) Patient fibroblasts were acquired from Coriell Institute for Medical Research (Camden, NJ, USA). GM03672 is an untransformed fibroblast cell line from a Leigh syndrome patient carrying an unknown mutation. GM08402 is an untransformed fibroblast from an apparently healthy individual. Cells were cultured at 37° C. at 5% CO2 in Eagle's Minimum Essential Medium (MEM, Corning), which was supplemented with Earle's salts and non-essential amino acids, 15% qualified fetal bovine serum, and 1% penicillin/streptomycin ([…]) to yield “Complete MEM.”
(§4) To initiate the RSL3 cytoprotection experiment, Healthy (GM08402) and Leigh syndrome (GM03672) fibroblasts were resuspended in Complete MEM. Cells were seeded at 10,000 cells per well in a clear, tissue cultured-treated, 96-well plate and incubated at 37° C. overnight. Following the incubation, supernatant was manually aspirated, taking care not to disrupt cells. […]. Luminescence units were quantified by GEN5 software on a BioTek SYNERGY neo2 plate reader (LUM filter).
(§5) RSL3 is an inhibitor of the enzyme glutathione peroxidase 4 (GPX4), which decreases lipid peroxides. RSL3 inhibition of GPX4 induces ferroptosis through iron-dependent accumulation of lipid ROS. In this assay, Healthy or Leigh fibroblasts were treated for 4 hours with RSL3 to induce ferroptosis or left untreated. Endogenous ATP levels were measured as an indicator of cellular viability using a commercially available kit (CellTiter-Glo® 2.0 Cell Viability Assay (Promega)).
(§6) […]. […] Briefly, ferroptosis was induced with 1 μM RSL3 in healthy fibroblast cells and 375 nM RSL3 in fibroblasts from a patient with Leigh syndrome.
(§7) A preliminary experiment was performed to determine the effect of RSL3 injury on the fibroblasts of a healthy individual (cell line: GM08402) and the fibroblasts of a patient diagnosed with Leigh syndrome (cell line: GM03672).

15-lipoxygenase (15-LO) = experiment: 15(S)-HETE ELISA following RSL3 treatment, Leigh fibroblasts; format: cell-based, human; conditions: 700 nM RSL3, 1 μM compound, 24 h
Description: Samples for the 15(S)-HETE ELISA were generated by the RSL3 cytoprotection assay described above. Healthy or Leigh fibroblasts were resuspended in assay medium, seeded at 200,000 cells per well in a clear, tissue culture-treated, 24-well plate. Cells were incubated at 37° C. for 24 hours. Supernatant was aspirated from each well following the incubation.
Fibroblasts from both a healthy individual and a patient diagnosed with Leigh syndrome were examined (but not all compounds were examined in each cell type). Activation of ferroptosis has been implicated as a driver of epilepsy, which is commonly associated with Leigh syndrome. […] Kahn-Kirby et al. PLOS One. […] As a key regulator of ferroptosis, 15-LO serves as a rational therapeutic target in Leigh syndrome.

[4] = test system: Healthy (GM08402) fibroblasts; experiment: RSL3 cytoprotection assay, healthy fibroblasts; format: cell-based, human; conditions: for relative anti-ferroptosis properties (comparison between test articles): 1 μM RSL3, 10-1000 nM compound, 4 h
Description: as §3, §4, §5, §6, §7

[5] = test system: Healthy (GM08402) fibroblasts; experiment: Erastin cytoprotection assay, healthy fibroblasts; format: cell-based, human; conditions: 2 μM erastin, 250 μM FAC, 50 μM AA, 10-1000 nM compound, 24 h
Description: as §1, §2

[6] = test system: Leigh fibroblasts (GM03672); experiment: Mitochondrial membrane potential (TMRM flow cytometry) in RSL3-treated Leigh fibroblasts; format: cell-based, human; conditions: 1 μM RSL3 alone, 4 h
Description: Leigh fibroblasts (GM03672) were seeded in a 24-well, tissue culture-treated plate in complete MEM (MEM+15% FBS+1% penicillin/streptomycin) at a density of 1×10^5 cells per 500 μL and incubated overnight at 37° C. at 5% CO2. Cells were treated for 4 hours at 37° C. with either 1 μM RSL3, 1 μM RSL3 with 1 μM Compound 3 or media for untreated cells. Following the incubation, supernatant was removed and cells were treated with 0.25% trypsin for 5 min at 37° C. Trypsin was neutralized with an equal part MEM. Cells were dislodged with gentle pipetting and pelleted at 300×g for 5 minutes. Pellets were resuspended in 500 μL Fluobrite DMEM and cells were transferred to a 96-well, v-bottom plate. Cells were stained with 20 nM MitoTracker Green and 100 nM tetramethylrhodamine methyl ester (TMRM) Samples were incubated for 25 minutes at 37° C. Each well was mixed immediately prior to analysis to resuspend settled cells. Fluorescence intensity was measured on the BD Accuri C6 Plus Flow Cytometer. A minimum of 10,000 events per sample was collected. Data analysis was performed using FloJo vs. 10. Gating was performed by establishing an initial forward scatter vs. side scatter gate. MitoTracker Green positive, TMRM positive cells were identified through subsequent gating. Median fluorescence intensity (MFI) of TMRM fluorescence was determined. Using GraphPad Prism 10, statistical significance between groups was determined by One-way ANOVA. A p-value of less than 0.05 was considered significant. Results are presented graphically in FIG. 20.

[7] = patients with pontocerebellar hypoplasia type 6; cited from earlier work

| relative 15-LO inhibition (comparison between test articles) (15-lipoxygenase (15-LO)) | SMILES | relative protective effect against erastin induced ferroptosis (cell viability, ATP) [1] | EC50 ([2]; oxygen consumption rate, read-out: EC50 value, Complex I by-pass activity) | Complex I by-pass activity (restoration of oxygen consumption rate) [2] | relative anti-ferroptosis properties (comparison between test articles) [3] | relative anti-ferroptosis properties (comparison between test articles) [4] | relative protective effect against erastin induced ferroptosis (cell viability, ATP) [5] | RSL3 concentration sufficient for 25-30% killing of cells ([3]; Leigh fibroblasts GM03672, 4 h) | mitochondrial membrane potential (TMRM MFI) [6] | RSL3 concentration sufficient for 25-30% killing of cells ([4]; healthy fibroblasts GM08402, 4 h) | effect on seizures [7] |
| --- | --- | --- | --- | --- | --- | --- | --- | --- | --- | --- | --- |
| superior to Compounds 2, 3 and 4 | COC1=C(OC)C(=O)C(CCCCCCCCCC(F)(F)F)=C(C)C1=O [Compound 1] | about equally protective | ~13.7 µM | restored oxygen consumption rate in a dose-dependent manner | roughly equivalent in their anti-ferroptosis properties | roughly equivalent in their anti-ferroptosis properties | about equally protective |  |  |  |  |
|  | COC(=O)c1ccc([C@H]2c3[nH]c4ccccc4c3C[C@H](C(=O)OC)N2C(=O)CCl)cc1 [RSL3, (1S,3R)-Methyl 2-(2-chloroacetyl)-2,3,4,9-tetrahydro-1-[4-(methoxycarbonyl)phenyl]-1H-pyrido[3,4-b]indole-3-carboxylate, reference compound] |  |  |  |  |  |  | 700 nM | significant reduction in mitochondrial membrane potential | 1 µM |  |
|  | CC(C)=CCC/C(C)=C/CC/C(C)=C/CC[C@@](C)(O)CCC1=C(C)C(=O)C(C)=C(C)C1=O [Vatiquinone, reference compound] | superior in its protective effect as compared with Compounds 1 and 4 |  | no CI-bypass activity; also recorded: inactive | roughly equivalent in their anti-ferroptosis properties | roughly equivalent in their anti-ferroptosis properties | about equally protective |  |  |  | reduce the incidence of seizures; also recorded: decrease seizure frequency and morbidity |

Source: patent publication US20250090562A1, “METHODS, COMPOSITIONS AND USES RELATED TO THE TREATMENT AND PREVENTION OF LEIGH’S SYNDROME” (Stealth BioTherapeutics Inc., priority 2023, published 2025)
